{
  "source": "paper PMC5248581",
  "about": "(PeerJ, 2017)",
  "key": {"[1]": {"molecular_target": "T1, rat recombinant myc-B2R (Rattus norvegicus, UniProt P25023)", "T1 construct": "expressed in transfected cells", "T1 sequence (P25023 1-396)": "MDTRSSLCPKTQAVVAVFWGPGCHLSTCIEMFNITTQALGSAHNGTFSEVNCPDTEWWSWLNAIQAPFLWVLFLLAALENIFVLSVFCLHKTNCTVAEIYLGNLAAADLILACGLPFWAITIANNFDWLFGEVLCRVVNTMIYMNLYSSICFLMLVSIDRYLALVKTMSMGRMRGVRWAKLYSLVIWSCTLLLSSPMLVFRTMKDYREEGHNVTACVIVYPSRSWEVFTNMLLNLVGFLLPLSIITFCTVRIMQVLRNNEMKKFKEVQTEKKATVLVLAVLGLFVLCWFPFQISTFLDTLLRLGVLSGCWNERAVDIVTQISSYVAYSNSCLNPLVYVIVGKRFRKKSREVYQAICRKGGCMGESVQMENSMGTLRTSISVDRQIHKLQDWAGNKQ", "assay": "[3H]BK binding competition, rat myc-B2R", "details": "3 nM [3H]BK, 0 °C, intact HEK 293a cells, peptidase inhibitors (captopril, PMSF); [95% C.L.]", "experimental": "(§1) The construction of myc-tagged B2R expression vectors containing the human and rat receptor sequence has been recently reported, as well as the derivation of HEK 293a cell lines that stably express each one of these constructions ([Charest-Morin et al., 2015]). The HEK 293a cell line was originally obtained from Sigma-Aldrich. Affinity of N-terminally extended kinins for the B2R was evaluated using a radioligand binding competition assay performed at 0 °C in the presence of peptidase inhibitors that included captopril and PMSF ([Houle et al., 2000]).\n(§2) Results are presented as means ± s.e.m."}, "[2]": {"assay": "LC-MS of MK incubated with human umbilical vein ring", "assay_type": "in vitro ADME", "details": "MK (100 fmol analysed), 37 °C, 5 or 15 min", "experimental": "Synthetic MK (1 µM) was submitted to digestion in 2 ml of sterile-filtered Krebs solution in the presence of a freshly prepared ring of human umbilical vein (wet weight 25–37 mg). The tubes containing these materials were incubated at 37 °C for 5 or 15 min; the tissues were then removed and five volumes of cold ethanol (10 ml) were added to each tube. The tubes were incubated for 1 h on ice, centrifuged at 10,000 g to remove precipitated proteins and the kinin-containing supernatants were collected (procedure previously validated, [Raymond et al., 1995]). The supernatants were then completely evaporated to dryness in a Speedvac system and reconstituted in a small volume of water. Peptides were desalted on stage tip (C18), vacuum dried and then resuspended into 0.1% formic acid. One hundred fmol of each sample (starting MK quantity) was analyzed by mass spectrometry.\nMass spectrometry: peptide samples were separated by online reversed-phase (RP) nanoscale capillary liquid chromatography (nanoLC) and analyzed by electrospray mass spectrometry (ES MS/MS). The experiments were performed with a Ekspert NanoLC425 (Eksigent) coupled to a 5600+ mass spectrometer (AB Sciex, Framingham, MA, USA) equipped with a nanoelectrospray ion source. Peptide separation took place on a picofrit column (Reprosil 3u, 120A C18, 15 cm × 0.075 mm internal diameter). Peptides were eluted with a linear gradient from 5–35% solvent B (acetonitrile, 0.1% formic acid) in 35 min, at 300 nL/min. Mass spectra were acquired using a data dependent acquisition mode using Analyst software version 1.7. […] Dynamic exclusion was set for a period of 3 s and a tolerance of 100 ppm\nDatabase searching: MGF peak list files were created using Protein Pilot version 5.0 software (Sciex) utilizing the Paragon and Progroup algorithms. MGF sample files were then analyzed using Mascot (Matrix Science, London, UK; version 2.5.1).\nMascot was set up to search the MK sequence assuming that the digestion enzyme was non-specific. Mascot was searched with a fragment ion mass tolerance of 0.100 Da and a parent ion tolerance of 0.100 Da. Deamidation of asparagine and glutamine and oxidation of methionine were specified in Mascot as variable modifications. Scaffold (version Scaffold_4.7.1; Proteome Software Inc., Portland, OR, USA) was used to validate MS/MS based peptide and protein identifications.\nData processing: Peak View 1.2.0.1 (Sciex) was used to extract the specific precursor masses and calculate the area under the curve. Extracted ion chromatoram (XIC) were generated from the TOF MS using a peak width of 0.05."}, "[3]": {"molecular_target": "T2, human isolated umbilical vein (BK B2R; histamine H1R) (Homo sapiens, UniProt P30411)", "T2 sequence (P30411 1-391)": "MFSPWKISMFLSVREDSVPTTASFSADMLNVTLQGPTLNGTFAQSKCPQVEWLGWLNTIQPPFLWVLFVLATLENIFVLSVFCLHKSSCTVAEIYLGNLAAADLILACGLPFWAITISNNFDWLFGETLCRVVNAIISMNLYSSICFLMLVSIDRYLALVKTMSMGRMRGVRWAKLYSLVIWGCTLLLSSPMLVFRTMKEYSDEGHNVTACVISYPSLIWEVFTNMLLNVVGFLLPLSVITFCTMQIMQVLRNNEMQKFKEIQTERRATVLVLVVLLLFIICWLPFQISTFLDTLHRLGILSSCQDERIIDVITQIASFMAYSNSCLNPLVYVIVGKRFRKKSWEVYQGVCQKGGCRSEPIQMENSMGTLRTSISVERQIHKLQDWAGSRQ", "details": "for pEC50: read-out: Human umbilical vein EC50, contraction, cumulative, [95% C.L.]", "description": "The institutional research ethics board (CHU de Québec) approved the anonymous use of human umbilical cord segments obtained after elective cesarean section deliveries (file number: 2012-323). Informed written consent was obtained from mothers.\nResults are presented as means ± s.e.m. Radioligand binding data were fitted by nonlinear regression to a one-site competition equation using a least-square method (Prism 5.0; GraphPad Software Inc., San Diego, CA, USA) and IC50 values calculated from this procedure. The same computer program was used to draw concentration-effect curves (least square fitting of sigmoidal dose–response equation with variable slope) and to derive contractile EC50 values. Data describing baseline values of heart rate and mean arterial blood pressure and hypotensive responses to peptides in anesthetized rats were assessed by using one-way analysis of variance (ANOVA) followed by the Dunnett’s test (repeated comparison with a common control). The effects of drugs on the hypotensive responses to each dose of MK were assessed by using ANOVA followed by the Dunnett’s test."}, "[4]": {"assay": "Plasma level after injection", "set-up": "species or system rat", "details": "after injection at the highest tested dose in vivo"}, "[5]": {"molecular_target": "T3, recombinant human myc-B2R (Homo sapiens, UniProt P30411)", "T3 construct": "expressed in transfected cells", "T3 sequence (P30411 1-391)": "T2 sequence (P30411 1-391)", "assay": "[3H]BK binding competition, human myc-B2R", "details": "for pIC50: 3 nM [3H]BK, 0 °C, intact HEK 293a cells, peptidase inhibitors (captopril, PMSF), [95% C.L.]", "experimental": "as §1, §2"}, "[6]": {"tested_on": "human BK B1 receptor", "details": "ref Charest-Morin & Marceau, 2016; cited from earlier work", "description": "MRGPRX2 has been recently described as a promiscuous receptor for cationic polymers and drugs that produce direct mast cell degranulation ([McNeil et al., 2015]). […] The contractile effect of MK on the human umbilical vein and ..."}, "[7]": {"tested_on": "rat mast cells", "details": "read-out: histamine release EC50; ref Devillier et al., 1985; cited from earlier work", "description": "MK, encoded by two genes as five identical and cleavable amino acid sequences ([Chen et al., 2003]), is presumably a dissuasive toxin expressed in the skin of the toad Bombina maxima. Several such BK-related peptides of amphibian origin are believed to have co-evolved with the kinin receptors of the predatory species such as birds and snakes ([Xi et al., 2015])."}, "[8]": {"molecular_target": "T2, human isolated umbilical vein (BK B2R; histamine H1R)", "details": "ref Gera et al., 2011; Charest-Morin et al., 2014; cited from earlier work", "description": "The isolated umbilical vein has a low intrinsic sensitivity to endothelium-dependent vasodilation owing to its >20 layers of B2R-expressing smooth muscle cells ([Koumbadinga et al., 2010]; [Jean et al., 2016b])."}},
  "note": "pEC50, pIC50: −log10 of the molar value. Residues, ends and D or L forms follow the SMILES beside them.",
  "data": [
    {"compound": "NC(N)=NCCC[C@H](NC(=O)[C@H](Cc1ccccc1)NC(=O)[C@@H]1CCCN1C(=O)[C@H](CO)NC(=O)[C@H](Cc1ccccc1)NC(=O)CNC(=O)[C@@H]1CCCN1C(=O)[C@@H]1CCCN1C(=O)[C@@H](N)CCCN=C(N)N)C(=O)O", "note": "[BK, bradykinin] (H-RPPGFSPFR-OH)", "values": [
      {"measurement": "pIC50", "setting": "[1]", "result": 7.72}
    ]},
    {"compound": "CC[C@H](C)[C@H](NC(=O)[C@H](CCCCN)NC(=O)[C@@H]1CCCN1C(=O)[C@H](CC(C)C)NC(=O)[C@@H](N)CC(=O)O)C(=O)N[C@@H](CC(N)=O)C(=O)N[C@@H](CCCNC(=N)N)C(=O)N[C@@H](CCCCN)C(=O)NCC(=O)N1CCC[C@H]1C(=O)N[C@@H](CCCNC(=N)N)C(=O)N1CCC[C@H]1C(=O)N1CCC[C@H]1C(=O)NCC(=O)N[C@@H](Cc1ccccc1)C(=O)N[C@@H](CO)C(=O)N1CCC[C@H]1C(=O)N[C@@H](Cc1ccccc1)C(=O)N[C@@H](CCCNC(=N)N)C(=O)O", "note": "[MK, maximakinin] (H-DLPKINRKGPRPPGFSPFR-OH)", "values": [
      {"measurement": "consumption of MK", "setting": "[2]", "result": "consumed during the reaction"},
      {"measurement": "pEC50", "setting": "[3]", "result": 6.84},
      {"measurement": "pIC50", "setting": "[1]", "result": 6.92},
      {"measurement": "plasma concentration upper limit", "setting": "[4]", "result": "≤ 100", "unit": "nM"},
      {"measurement": "pIC50", "setting": "[5]", "result": 5.12}
    ]},
    {"compound": "CC[C@H](C)[C@H](NC(=O)[C@H](CCCCN)NC(=O)[C@@H]1CCCN1C(=O)[C@H](CC(C)C)NC(=O)[C@@H](N)CC(=O)O)C(=O)N[C@@H](CC(N)=O)C(=O)N[C@@H](CCCNC(=N)N)C(=O)N[C@@H](CCCCN)C(=O)NCC(=O)N1CCC[C@H]1C(=O)N[C@@H](CCCNC(=N)N)C(=O)N1CCC[C@H]1C(=O)N1CCC[C@H]1C(=O)NCC(=O)N[C@@H](Cc1ccccc1)C(=O)N[C@@H](CO)C(=O)N1CCC[C@H]1C(=O)N[C@@H](Cc1ccccc1)C(=O)O", "note": "[MK-des-Arg] (H-DLPKINRKGPRPPGFSPF-OH; N-terminus and C-terminus assumed)", "values": [
      {"measurement": "contractile effect", "setting": "[3]", "result": "negligible effects"},
      {"measurement": "pEC50", "setting": "[3]", "result": "< 5.00"},
      {"measurement": "pIC50", "setting": "[5]", "result": "< 5.00"},
      {"measurement": "displacement of [3H]BK binding / affinity", "setting": "[5]; human myc-B2R", "result": "did not significantly displace [^3H]BK binding"},
      {"measurement": "B1R affinity", "setting": "[6]", "result": "very low affinity"}
    ]},
    {"compound": "Lys-BK", "values": [
      {"measurement": "pEC50", "setting": "[7]", "result": 5.11}
    ]},
    {"compound": "Met-Lys-BK-Ser-Ser [BK prodrug prolonged at the C-terminus]", "values": [
      {"measurement": "apparent potency in presence of specific peptidase inhibitors", "setting": "[8]", "result": "decreased apparent potency"}
    ]}
  ]
}
